We go through 15 compounds from patent US12624044B2, “SMARCA degraders and uses thereof” (Kymera Therapeutics, Inc., priority 2019, dated 2026).

For this assay, the target named is SMARCA2 (Homo sapiens, UniProt P51531). Kind of assay: MSD SMARCA2 degradation in NCI-H1299 cell line (24 h). The arrangement: HC: NCI-H1299 cells treated with DMSO; host or cells: NCI-H1299. To be noted: for Dmax: NCI-H1299, NCI-H1299 cells; for DC50: NCI-H1299 cells, read-out: SMARCA2 MSD H1299 degradation 24 h: External Abs-DC50. In kind it is cell-based. The method, then: Example 32. MSD SMARCA2 Degradation in […] Cell Line
Cell Culture: Cells were cultured in exponential growth phase.
Compound Preparation and Treatment: NCI-H1299 cells were seeded into the 96-well plate at 4.0*10^4 cells per 100 ul per well. Incubate the plate in the incubator overnight. The next day, compounds were diluted to designed stock concentration by TECAN, then perform a 3 fold, 9-point dilution via transferring 15 uL compound into 30 μL DMSO using Apricot. 200 nL diluted compound from compound source plate were transferred into the 96-intermediate plate as designated by using Echo550, followed with 100 ul culture medium to make the 2× compound solution. Cell plate were changed with 80 ul of fresh culture medium and 80 ul of 2× compound solution was added into the well to achieve the final designed concentration. Cell plate was then shaken at 720 rpm for 5 min and incubated for 24 hours in the incubator.
Sample Preparation: Media was aspirated from the cultures and the plate was washed with PBS twice. 60 ul of pre-chilled PIPA lysis buffer (Boston BioProducts BP-115D) with protease inhibitor were directly added into the well to lyze the cells for 20 minutes at 4° C. Cell lysates were collected.
MSD Procedure: The MSD plate was coated with 40 ul cell lysate and incubated at 4° C. overnight. The next day, the MSD coated bare plate was washed 3 times with 150 ul 1×TBST per well, blocked with 150 ul of blocking buffer per well, and shaken for 1 hour at RT, 600 rpm. Blocking buffer was 3% Blocker A in TBST. MSD plate was then washed 3 times with 150 ul 1×TBST per well and Primary Detection antibody (Rabbit anti-SMARCA2/BRM antibody, 100 μg/ml, ab223735) was added to a final [conc.]: 0.3 ug/ml, 25 ul/well and shaken for 1 hour at RT, 600 rpm. Antibody was prepared in Antibody Detection buffer (1% Blocker A in 1×TBST). The MSD plate was then washed 3 times with 150 ul 1×TBST per well. Secondary Detection antibody (SULFO-TAG anti-species antibody) was then added to a final [conc.]: 1 ug/ml, 25 ul/well, and shaken for 1 hour at RT, 600 rpm. Antibodies were prepared in Antibody Detection buffer (1% Blocker A in 1×TBST). MSD plate was washed 3 times with 150 ul 1×TBST per well and 2×MSD reading buffer was added, 150 ul per well, and diluted from 4× with water. MSD instrument was then read.
Data Analysis: The percentage of relative level of SMARCA2 level was calculated following equation below.
LC: A2780, SMARCA2 negative cells. HC: NCI-H1299 cells treated with DMSO.
The letter codes for the percentage of SMARCA2 degradation after 24 hours (Dmax %) include: A (>90% degradation), B (>70-90 degradation), C (50-70 degradation), and D (<50% degradation).

Sequence of SMARCA2 (P51531 whole entry): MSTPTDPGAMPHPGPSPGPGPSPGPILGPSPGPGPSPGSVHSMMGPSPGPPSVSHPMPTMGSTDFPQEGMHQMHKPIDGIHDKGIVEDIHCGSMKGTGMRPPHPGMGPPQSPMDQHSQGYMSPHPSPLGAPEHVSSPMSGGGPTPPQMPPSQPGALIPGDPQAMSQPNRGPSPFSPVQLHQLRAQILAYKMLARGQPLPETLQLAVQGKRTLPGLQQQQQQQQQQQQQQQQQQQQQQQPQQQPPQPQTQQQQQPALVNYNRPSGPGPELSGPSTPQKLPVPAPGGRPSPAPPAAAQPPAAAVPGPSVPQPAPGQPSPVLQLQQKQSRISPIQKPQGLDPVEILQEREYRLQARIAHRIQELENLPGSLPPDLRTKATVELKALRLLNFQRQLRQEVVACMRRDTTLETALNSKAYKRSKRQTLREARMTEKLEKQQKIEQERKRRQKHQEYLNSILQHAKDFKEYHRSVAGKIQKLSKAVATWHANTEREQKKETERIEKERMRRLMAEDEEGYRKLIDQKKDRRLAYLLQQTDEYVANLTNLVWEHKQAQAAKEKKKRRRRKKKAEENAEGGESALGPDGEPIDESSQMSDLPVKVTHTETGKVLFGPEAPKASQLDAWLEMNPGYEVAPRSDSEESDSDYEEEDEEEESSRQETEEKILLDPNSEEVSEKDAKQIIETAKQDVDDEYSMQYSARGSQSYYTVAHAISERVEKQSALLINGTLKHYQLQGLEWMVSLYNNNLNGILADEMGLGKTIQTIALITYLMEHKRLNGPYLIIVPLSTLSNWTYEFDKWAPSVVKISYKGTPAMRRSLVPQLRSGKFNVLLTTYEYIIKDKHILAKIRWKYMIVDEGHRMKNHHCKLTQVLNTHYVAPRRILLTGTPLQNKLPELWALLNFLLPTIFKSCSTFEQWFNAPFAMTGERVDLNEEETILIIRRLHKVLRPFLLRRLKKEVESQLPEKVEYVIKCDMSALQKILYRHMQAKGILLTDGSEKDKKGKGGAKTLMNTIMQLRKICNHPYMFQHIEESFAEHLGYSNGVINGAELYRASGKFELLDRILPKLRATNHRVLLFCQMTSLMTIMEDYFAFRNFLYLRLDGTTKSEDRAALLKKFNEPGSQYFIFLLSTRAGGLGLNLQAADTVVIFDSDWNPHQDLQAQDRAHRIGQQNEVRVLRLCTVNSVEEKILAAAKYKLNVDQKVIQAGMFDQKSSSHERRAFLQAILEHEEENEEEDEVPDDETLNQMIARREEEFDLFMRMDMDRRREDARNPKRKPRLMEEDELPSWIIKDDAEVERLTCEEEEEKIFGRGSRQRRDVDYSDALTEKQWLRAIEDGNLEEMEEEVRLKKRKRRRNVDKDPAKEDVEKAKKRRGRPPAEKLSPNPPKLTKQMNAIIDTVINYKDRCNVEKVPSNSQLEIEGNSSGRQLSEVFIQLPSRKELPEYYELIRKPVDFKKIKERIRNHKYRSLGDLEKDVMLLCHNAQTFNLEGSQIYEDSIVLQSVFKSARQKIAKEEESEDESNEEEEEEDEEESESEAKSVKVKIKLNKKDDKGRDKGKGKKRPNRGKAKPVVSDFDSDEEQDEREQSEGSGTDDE

Usually Dmax stands for the largest share of the target that was removed. For orientation: DC50 means the midpoint of the concentration-degradation curve. Take `O=C1CCC(N2C(=O)c3cccc(OCCCCc4cn(Cc5cccc(N6C[C@H]7C[C@@H]6CN7/C=C/C(=O)c6ccccc6O)n5)nn4)c3C2=O)C(=O)N1` (stereo partly shown) [I-37]: the Dmax was more than 90% and the DC50 fell in the range of 0.501 to 1 µM. For `O=C1CCC(N2C(=O)c3cccc(NCCOCc4cn(Cc5cccc(N6C[C@H]7C[C@@H]6CN7/C=C/C(=O)c6ccccc6O)n5)nn4)c3C2=O)C(=O)N1` (stereo partly shown) [I-38], the DC50 was more than 1 µM. For the compound `O=C1CCC(N2C(=O)c3cccc(OCCOCCc4cn(Cc5cccc(N6C[C@H]7C[C@@H]6CN7/C=C/C(=O)c6ccccc6O)n5)nn4)c3C2=O)C(=O)N1` (stereo partly shown) [I-39], the DC50 is more than 1 µM.

For the compound `O=C1CCC(N2C(=O)c3cccc(OCCOCCCc4cn(Cc5cccc(N6C[C@H]7C[C@@H]6CN7/C=C/C(=O)c6ccccc6O)n5)nn4)c3C2=O)C(=O)N1` (stereo partly shown) [I-40], the DC50 was more than 1 µM. On to `CN1C(=O)CCC(N2C(=O)c3cccc(OCCCCc4cn(Cc5cccc(N6C[C@H]7C[C@@H]6CN7/C=C/C(=O)c6ccccc6O)n5)nn4)c3C2=O)C1=O` (stereo partly shown) [I-41], for which the DC50 was more than 1 µM. On to `CC(c1ccc(CNCCOCCOCCOCCCc2ccc3c(c2)n(C)c(=O)n3C2CCC(=O)NC2=O)cc1)n1cc(-c2cc(-c3ccccc3O)nnc2N)cn1` (stereo not shown) [I-42, 3-(5-(1-(4-(1-(4-(3-amino-6-(2-hydroxyphenyl)pyridazin-4-yl)-1H-pyrazol-1-yl)ethyl)phenyl)-5,8,11-trioxa-2-azatetradecan-14-yl)-3-methyl-2-oxo-2,3-dihydro-1H-benzo[d]imidazol-1-yl)piperidine-2,6-dione], for which the DC50 is more than 1 µM. Take `Nc1nnc(-c2ccccc2O)cc1N1C[C@H]2C[C@@H]1CN2c1cccc(Cn2cc(CCCCOc3cccc4c3C(=O)N(C3CCC(=O)NC3=O)C4=O)nn2)n1` (stereo partly shown) [I-43]: the Dmax lay in the range of 70 to 90% and the DC50 is more than 1 µM. In the case of `Cn1c(=O)n(C2CCC(=O)NC2=O)c2ccc(CCCCc3cn(Cc4cccc(N5C[C@H]6C[C@@H]5CN6/C=C/C(=O)c5ccccc5O)n4)nn3)cc21` (stereo partly shown) [I-44], the Dmax is less than 50% and the DC50 is more than 1 µM. With `Cn1c(=O)n(C2CCC(=O)NC2=O)c2ccc(CCCCCc3cn(Cc4cccc(N5C[C@H]6C[C@@H]5CN6/C=C/C(=O)c5ccccc5O)n4)nn3)cc21` (stereo partly shown) [I-45], the Dmax is less than 50% and the DC50 is more than 1 µM. Taken in the same sequence, the figures for `Cn1c(=O)n(C2CCC(=O)NC2=O)c2ccc(CCCCCCc3cn(Cc4cccc(N5C[C@H]6C[C@@H]5CN6/C=C/C(=O)c5ccccc5O)n4)nn3)cc21` (stereo partly drawn) [I-46, 3-(5-(6-(1-((6-((1R,4R)-5-((E)-3-(2-hydroxyphenyl)-3-oxoprop-1-en-1-yl)-2,5-diazabicyclo[2.2.1]heptan-2-yl)pyridin-2-yl)methyl)-1H-1,2,3-triazol-4-yl)hexyl)-3-methyl-2-oxo-2,3-dihydro-1H-benzo[d]imidazol-1-yl)piperidine-2,6-dione] were 50 to 70% and more than 1 µM. `Cn1c(=O)n(C2CCC(=O)NC2=O)c2ccc(CCCCCCCc3cn(Cc4cccc(N5C[C@H]6C[C@@H]5CN6/C=C/C(=O)c5ccccc5O)n4)nn3)cc21` (stereo partly shown) [I-47]: the Dmax is less than 50% and the DC50 was more than 1 µM. `Cn1c(=O)n(C2CCC(=O)NC2=O)c2ccc(CCCCCCCCc3cn(Cc4cccc(N5C[C@H]6C[C@@H]5CN6/C=C/C(=O)c5ccccc5O)n4)nn3)cc21` (stereo partly shown) [I-48]: the Dmax is less than 50% and the DC50 is more than 1 µM. With `Cn1c(=O)n(C2CCC(=O)NC2=O)c2cccc(CCCCc3cn(Cc4cccc(N5C[C@H]6C[C@@H]5CN6/C=C/C(=O)c5ccccc5O)n4)nn3)c21` (stereo partly shown) [I-49], the greatest degradation seen (Dmax) was 70 to 90% and the DC50 was in the range of 0.1 to 0.5 µM. For `Cn1c(=O)n(C2CCC(=O)NC2=O)c2cccc(CCCCCc3cn(Cc4cccc(N5C[C@H]6C[C@@H]5CN6/C=C/C(=O)c5ccccc5O)n4)nn3)c21` (stereo partly shown) [I-50], the Dmax is less than 50% and the DC50 was more than 1 µM. As to `Cn1c(=O)n(C2CCC(=O)NC2=O)c2cccc(CCCCCCc3cn(Cc4cccc(N5C[C@H]6C[C@@H]5CN6/C=C/C(=O)c5ccccc5O)n4)nn3)c21` (stereo partly shown) [I-51], the Dmax is less than 50% and the DC50 was more than 1 µM.
